These are literature values, as cited in US20130317108A1, “DERMATOLOGICAL FOAMS OBTAINED FROM A GEL OR SUSPENSION CONTAINING A COMBINATION OF ADAPALENE AND BENZOYL PEROXIDE” (GALDERMA RESEARCH & DEVELOPMENT, priority 2010, published 2013).

Read-outs that look alike come from different tables or passages of the source.

The conditions of series [1]: in presence of benzoyl peroxide formulation.
The conditions of series [2]: in suspension (dispersed form) in water and propylene glycol, 90 days of storage.
For series [3] the following is noted: 40° C.

`COc1ccc(-c2ccc3cc(C(=O)O)ccc3c2)cc1C12CC3CC(CC(C3)C1)C2` [adapalene, 6-[3-(1-Adamantyl)-4-methoxyphenyl]-2-naphthoic acid]: the retinoid degraded entry in series [1] (within 24 hours) was “no degradation”.

Take `O=C(OOC(=O)c1ccccc1)c1ccccc1` [benzoyl peroxide]: the degradation on storage entry in series [2] is “not degraded”. Besides, the “degradation time (half-life time)” value is reported as 1.4 days in series [3] (in PEG 400 (0.5 mg/g)), 29 days in series [3] (in ethanol) and 53 days in series [3] (in propylene glycol).

As for `CC1=C(/C=C/C(C)=C/C=C/C(C)=C/C(=O)O)C(C)(C)CCC1` [tretinoin], the retinoid degraded in series [1] (within 2 hours) is given as 50%; in series [1] (within 24 hours), 95%.
